Legend:
5-HT2C receptors = tested on: 5-HT2C receptors; design: method as in PMID 25237120, PMID 23583454; conditions: cited from earlier work
healthy poly-drug users [1] = experiment: Physiological effects (non-invasive SBP, DBP, HR, cutaneous temperature) after oral self-administration; assay type: in vivo, humans; design: key to HR Dunnet’s Test: “a” (times 0–1 h); “b” (times 0–2 h); “c” (times 0–4 h); not significant (NS)
Text: (§1) The study was designed as a non-controlled prospective observational study in a naturalistic setting with methylone and MDMA self-administration. The methodology, including procedures and evaluations, coincides with previous observational–naturalistic studies aimed at evaluating the acute effects of other NPS [38, 39, 40]. Six subjects (5 M, 1 F) self-administered MDMA and 8 subjects (5 M, 3 F) self-administered methylone. Each subject participated only in one session. Participants brought their own substance obtained from an unknown source, which was tested by Energy Control, a harm reduction organization that provides a drug checking service to drug users. Pills containing methylone and MDMA were analyzed by gas chromatography associated with mass spectrometry (GC/MS), a technique that traces the presence of the most frequent drugs of abuse, such as MDMA, cocaine, heroin, amphetamine and methamphetamine, LSD, and multiple NPS (methylone, mephedrone, and other synthetic cathinones, synthetic cannabinoids, tryptamines, among others).
(§2) In both sessions, participants selected the dose of methylone or MDMA according to their previous drug use experience. Doses of methylone could be selected from a range (75–300 mg) that was previously defined according to the consulted literature. The WHO Expert Committee on Drug Dependence (Thirty-Sixth Meeting, Geneva, Switzerland, 16–20 June 2014) established that 60 mg of methylone was the threshold dose and doses over 250 mg were often related to very strong activity. Some users have reported uses of 300 mg of methylone as a common dose [www.erowid.org] (accessed on 15 June 2021). The mean of the selected doses of MDMA was 87.50 mg (3 subjects ingested 75 mg (2 males and 1 female), 3 males 100 mg). In the other study session, methylone doses ranged from 100 to 300 mg, with a mean of 187.50 mg. Based on their dose selection, 1 male ingested 100 mg, 2 subjects 150 mg (1 male and 1 female), 4 subjects 200 mg (2 males and 2 females), and 1 male 300 mg.
(§3) The sessions were conducted in a naturalistic setting. Participants were allowed to talk, read, listen to music, or play games, except during the evaluation times. However, they were asked to refrain from talking about the effects of the substance. All the subjects were evaluated simultaneously at baseline, 1, 2, and 4 h after administration of methylone or MDMA, which occurred approximately at 16:00 h. At each time point, evaluations were followed in a specific order: physiological effects, oral fluid collection, and subjective effects scales and questionnaires.
Non-invasive systolic blood pressure (SBP), diastolic blood pressure (DBP), and heart rate (HR) were measured with subjects in the sitting position, using an automatic Omron monitor at baseline, 1, 2, and 4 h (h) after self-administration. Cutaneous temperature was determined at the same time points.
Vital signs (SBP, DBP, and HR) and subjective effects (VAS, ARCI, and VESSPA-SSE) were baseline-adjusted. Maximum effects and the time in which maximum effects appeared were determined, and the area under the curve (AUC0–4h) was calculated with the trapezoidal rule.
Thirdly, to find possible significant changes from baseline, a Dunnett multiple comparison test was conducted to compare each time point with baseline in both drug conditions (0–1 h, 0–2 h, 0–4 h).

[2] = Oral fluid to blood (OF/B) concentration ratio and plasma concentration; conditions: human, 100 mg
healthy poly-drug users [3] = experiment: Subjective effects, visual analogue scales (VAS); assay type: in vivo, humans; design: key to VAS stimulated Dunnet’s Test / VAS change in lights Dunnet’s Test / VAS different body feeling Dunnet’s Test / VAS different surrounding Dunnet’s Test / VAS dizziness Dunnet’s Test / VAS headache Dunnet’s Test / VAS face flushing Dunnet’s Test: “a” (times 0–1 h); “b” (times 0–2 h); “c” (times 0–4 h); not significant (NS)
Text: as §1, §2, §3
Subjective effects were evaluated at baseline, 1, 2, and 4 h after self-administration using visual analogue scales (VAS), the Addiction Research Center Inventory (ARCI), and the Evaluation of Subjective Effects of Substances with Abuse Potential questionnaire (VESSPA-SSE).
Visual analogue scales (100 mm, from “not at all” to “extremely”) contained 30 items that subjects were asked to rate, such as: intensity, stimulated, high, good effects, liking, happiness, drunkenness, changes in colors, changes in shapes, changes in lights, hallucinations (seeing lights or spots), hallucinations (seeing of animals), changes in hearing, hallucinations (hearing sounds or voices), different or changed body feeling, unreal body feeling, changes in distances, different surroundings, unreal surroundings, confusion, fear, depression or sadness, drowsiness, dizziness, bad effects, headache, sickness, vertigo, shortness of breath, and face flushing.
Vital signs (SBP, DBP, and HR) and subjective effects (VAS, ARCI, and VESSPA-SSE) were baseline-adjusted. Maximum effects and the time in which maximum effects appeared were determined, and the area under the curve (AUC0–4h) was calculated with the trapezoidal rule. […]

[4] = oral, methylone 100–300 mg n=8, MDMA 75–100 mg n=6, baseline-adjusted, mean ± SD
[5] = time points significantly different from baseline

## CNC(C)Cc1ccc2c(c1)OCO2 (centres unmarked) [MDMA, 3,4-methylenedioxymethamphetamine]
5-HT2C receptors
  Activity at 5-HT2C receptors: partial agonist rather than an antagonist
Healthy poly-drug users [1]; [4]
  DBP AUC0–4h: 78.92 ± 30.33
  DBP Emax: 32.17 ± 11.29 mmHg
  HR AUC0–4h: 23.83 ± 38.73
  HR Emax: 10.67 ± 18.22 bpm
  SBP AUC0–4h: 107.67 ± 44.34
  SBP Emax: 46.83 ± 20.83 mmHg
Healthy poly-drug users [1]; oral, methylone 100–300 mg, MDMA 75–100 mg, versus baseline, 0–4 h
  Variation in cutaneous temperature: Neither of the substances caused significant variations
Healthy poly-drug users [1]; [5]
  DBP Dunnet’s Test: a, b
  HR Dunnet’s Test: NS
  SBP Dunnet’s Test: a, b
[2]
  Kp: 22.4
Healthy poly-drug users [3]; oral, VAS, ARCI, VESSPA-SSE overall
  Time at which subjective effects in general reached maximum values: 1.5 h
Healthy poly-drug users [3]; [4]
  VAS change in lights AUC0–4h: 40.00 ± 53.35
  VAS change in lights Emax: 20.00 ± 25.11 mm
  VAS content AUC0–4h: 186.25 ± 52.39
  VAS content Emax: 74.50 ± 18.96 mm
  VAS different body feeling AUC0–4h: 95.25 ± 53.40
  VAS different body feeling Emax: 50.33 ± 22.59 mm
  VAS different surrounding AUC0–4h: 27.33 ± 39.71
  VAS different surrounding Emax: 17.33 ± 17.68 mm
  VAS dizziness AUC0–4h: 20.17 ± 20.68
  VAS dizziness Emax: 13.00 ± 9.84 mm
  VAS face flushing AUC0–4h: 89.33 ± 58.31
  VAS face flushing Emax: 45.00 ± 22.74 mm
  VAS good effects AUC0–4h: 167.67 ± 54.01
  VAS good effects Emax: 67.83 ± 16.51 mm
  VAS headache AUC0–4h: 10.58 ± 18.86
  VAS headache Emax: 5.83 ± 7.68 mm
  VAS high AUC0–4h: 136.92 ± 41.05
  VAS high Emax: 60.17 ± 14.96 mm
  VAS intensity AUC0–4h: 111.33 ± 36.34
  VAS intensity Emax: 47 ± 11.19 mm
  VAS stimulated AUC0–4h: 113.17 ± 40.92
  VAS stimulated Emax: 50.17 ± 17.12 mm
Healthy poly-drug users [3]; oral, methylone 100–300 mg n=8, MDMA 75–100 mg n=6, median (min–max)
  VAS change in lights Tmax: 1.5 (0.0–4.0) h
Healthy poly-drug users [3]; [5]
  VAS change in lights Dunnet’s Test: NS
  VAS content Dunnet’s Test: a, b, c
  VAS different body feeling Dunnet’s Test: a
  VAS different surrounding Dunnet’s Test: a
  VAS dizziness Dunnet’s Test: NS
  VAS face flushing Dunnet’s Test: a
  VAS good effects Dunnet’s Test: a, b
  VAS headache Dunnet’s Test: NS
  VAS high Dunnet’s Test: a, b
  VAS intensity Dunnet’s Test: a, b
  VAS stimulated Dunnet’s Test: a, b

From publication PMC8389614, “A Comparison of Acute Pharmacological Effects of Methylone and MDMA Administration in Humans and Oral Fluid Concentrations as Biomarkers of Exposure” (Biology, 2021)
